In ChEMBL document CHEMBL5230136, “A review: Biologically active 3,4-heterocycle-fused coumarins” (Eur J Med Chem, 2021):
pIC50: −log10 of the molar value. ≈ marks a conversion by molar mass, not a printed value.

Key:
Serratia marcescens [1] = test: Antibacterial activity against Serratia marcescens assessed as zone of inhibition at 20 mg/ml; type: functional; details: read-out: IZ
Staphylococcus aureus = test: Antibacterial activity against Staphylococcus aureus assessed as zone of inhibition; type: functional
Bacillus cereus [2] = test: Antibacterial activity against Bacillus cereus assessed as zone of inhibition; type: functional
Serratia marcescens [3] = test: Antibacterial activity against Serratia marcescens assessed as zone of inhibition; type: functional
Proteus mirabilis = test: Antibacterial activity against Proteus mirabilis assessed as zone of inhibition; type: functional
Aspergillus niger = test: Antifungal activity against Aspergillus niger assessed as zone of inhibition; type: functional
Aspergillus ochraceus = test: Antifungal activity against Aspergillus ochraceus assessed as zone of inhibition; type: functional
Penicillium chrysogenum = test: Antifungal activity against Penicillium chrysogenum assessed as zone of inhibition; type: functional
[4] = target: T1, D(4) dopamine receptor (Homo sapiens) (UniProt P21917); test: Inhibition of human D4 receptor
T1 sequence (whole entry): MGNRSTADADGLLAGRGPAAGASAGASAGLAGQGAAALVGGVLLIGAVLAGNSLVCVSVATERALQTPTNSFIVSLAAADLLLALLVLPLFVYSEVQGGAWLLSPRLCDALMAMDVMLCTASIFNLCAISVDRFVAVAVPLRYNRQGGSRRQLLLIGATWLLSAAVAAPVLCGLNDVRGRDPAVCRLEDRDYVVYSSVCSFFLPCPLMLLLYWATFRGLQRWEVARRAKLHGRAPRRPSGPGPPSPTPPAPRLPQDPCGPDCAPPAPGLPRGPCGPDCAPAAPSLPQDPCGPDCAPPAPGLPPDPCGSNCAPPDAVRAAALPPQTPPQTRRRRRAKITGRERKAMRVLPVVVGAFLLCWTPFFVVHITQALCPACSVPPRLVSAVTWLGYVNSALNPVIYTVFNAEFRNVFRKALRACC

Botrytis cinerea [5] = test: Antifungal activity against Botrytis cinerea; type: functional, organism-based
Colletotrichum camelliae = test: Antifungal activity against Colletotrichum camelliae; type: functional, organism-based
Rhizoctonia solani [6] = test: Antifungal activity against Rhizoctonia solani at 150 uM; type: functional, organism-based
[7] = Antioxidant activity assessed as DPPH radical scavenging activity; type: functional
Ehrlich = test: cells; details: Mus musculus
Description: Anticancer activity against mouse EAC cells assessed as reduction in cell viability

[8] = system: Xanthomonas citri pv. malvacearum; test: Antibacterial activity against Xanthomonas citri pv. malvacearum assessed as reduction in bacterial growth; type: functional; parameters: concentration or dose not given beside the values
Fusarium verticillioides = test: Antifungal activity against Fusarium verticillioides assessed as reduction in fungal growth; type: functional; parameters: concentration or dose not given beside the values
Rhizoctonia solani [9] = test: Antifungal activity against Rhizoctonia solani assessed as reduction in fungal growth; type: functional; parameters: concentration or dose not given beside the values
Erysiphe necator = test: Antifungal activity against powdery mildew Erysiphe necator assessed as reduction in fungal growth; type: functional; parameters: concentration or dose not given beside the values
Phytophthora = test: Antimicrobial activity against Phytophthora assessed as reduction in microbial growth; type: functional; parameters: concentration or dose not given beside the values
Botrytis cinerea [10] = test: Antifungal activity against gray mold Botrytis cinerea assessed as reduction in fungal growth; type: functional; parameters: concentration or dose not given beside the values
[11] = Antiproliferative activity against human U87 cells assessed as reduction in cell viability by MTT assay; type: functional, cell-based, U-87MG ATCC; details: U-87 MG
Bacillus cereus [12] = test: Antibacterial activity against Bacillus cereus assessed as zone of inhibition at 20 mg/ml; type: functional; details: read-out: IZ
Pseudomonas aeruginosa = test: Antibacterial activity against Pseudomonas aeruginosa assessed as zone of inhibition; type: functional
Escherichia coli = test: Antibacterial activity against Escherichia coli assessed as zone of inhibition; type: functional
Klebsiella aerogenes = test: Antibacterial activity against Enterobacter aerogenes assessed as zone of inhibition; type: functional
Penicillium italicum = test: Antifungal activity against Penicillium italicum assessed as zone of inhibition; type: functional
Fusarium oxysporum = test: Antifungal activity against Fusarium oxysporum assessed as zone of inhibition; type: functional
HCT-116/VM46 = test: cells; details: Homo sapiens
[13] = target: Dopamine receptors; D2 & D4 (Homo sapiens, UniProt P14416+P21917); test: Binding affinity to human D2/D4 receptor assessed as inhibition constant; type: protein assay

In the case of CCOC(=O)c1nc2c3c(ncn2n1)Oc1c(c(=O)oc2ccccc12)C3c1ccc(Cl)cc1 (stereo unspecified), the zone of inhibition at 20000 µg/mL (Serratia marcescens [1]) was 25 mm, the “inhibition zone (IZ)” value (Staphylococcus aureus) was 23 mm and the “inhibition zone (IZ)” value (Bacillus cereus [2]) was 22 mm. For the same compound, the “inhibition zone (IZ)” value (Serratia marcescens [3]) was 25 mm, the “inhibition zone (IZ)” value (Proteus mirabilis) was 23 mm and the “inhibition zone (IZ)” value (Aspergillus niger) was 14 mm. For the same compound, the “inhibition zone (IZ)” value (Aspergillus ochraceus) was 19 mm and the “inhibition zone (IZ)” value (Penicillium chrysogenum) was 20 mm.

Work on CC(CN1CCC2c3ccccc3OC(=O)C2C1)N(C)C (stereo unspecified) yielded an ID50 [4] of 0.192 mg/kg.

COc1ccc2ccc(=O)oc2c1CC=C(C)C [OSTHOLE] gave an EC50 (Botrytis cinerea [5]) of 6.45 µg/mL (≈ 26.4 µM), an EC50 (Colletotrichum camelliae) of 16.8 µg/mL (≈ 68.9 µM) and an EC50 (Rhizoctonia solani [6]) of 6.88 µg/mL (≈ 28.2 µM).

For COc1ccc(C2SCCNc3c2c(=O)oc2ccccc32)c(O)c1 (stereo unspecified), the pIC50 [7] was 3.92.

In the case of O=c1[nH]cc(F)c(=O)[nH]1 [FLUOROURACIL], the pIC50 (Ehrlich) was 6.42.

C=CCOc1ccc2c(c1)oc(=O)c1c(C)coc12 gave an EC50 (Botrytis cinerea [5]) of 1.72 µg/mL (≈ 6.71 µM).

In the case of CC1c2c(c3ccccc3oc2=O)Oc2ncn(C)c(=N)c21 (stereo unspecified), the “inhibition zone (IZ)” value (Staphylococcus aureus) was 18 mm, the “inhibition zone (IZ)” value (Bacillus cereus [2]) was 17 mm and the “inhibition zone (IZ)” value (Serratia marcescens [3]) was 19 mm. For the same compound, the “inhibition zone (IZ)” value (Proteus mirabilis) was 19 mm, the “inhibition zone (IZ)” value (Aspergillus ochraceus) was 19 mm and the “inhibition zone (IZ)” value (Penicillium chrysogenum) was 15 mm.

O=c1oc2c(ccc3ccccc32)c2c1C(c1ccccc1)NC(c1ccccc1)C2 (stereo unspecified) showed an Activity [8] of 9%, an Activity (Fusarium verticillioides) of 18% and an Activity (Rhizoctonia solani [9]) of 30%. It also gave an Activity (Erysiphe necator) of 68%, an Activity (Phytophthora) of 83% and an Activity (Botrytis cinerea [10]) of 32%.

Cc1ccc2c3c(c(=O)oc2c1)C(c1ccccc1)N(C)C(c1ccccc1)C3 (stereo unspecified) showed an Activity [8] of 0%, an Activity (Fusarium verticillioides) of 22% and an Activity (Rhizoctonia solani [9]) of 15%. It also gave an Activity (Erysiphe necator) of 0%, an Activity (Phytophthora) of 0% and an Activity (Botrytis cinerea [10]) of 0%.

With N#CC1=C(N)Oc2c(c(=O)oc3ccccc23)C12C(=O)N(CCCCBr)c1ccccc12 (stereo unspecified) the pIC50 [11] was 4.11.

In the case of CC1(C)S[C@@H]2[C@H](NC(=O)[C@H](N)c3ccccc3)C(=O)N2[C@H]1C(=O)O [AMPICILLIN], the “inhibition zone (IZ)” value (Staphylococcus aureus) was 26 mm, the “inhibition zone (IZ)” value (Bacillus cereus [2]) was 25 mm and the “inhibition zone (IZ)” value (Serratia marcescens [3]) was 26 mm. For the same compound, the “inhibition zone (IZ)” value (Proteus mirabilis) was 27 mm.

Compound Cc1coc2c1c(=O)oc1ccccc12 has an EC50 (Colletotrichum camelliae) of 8.74 µg/mL (≈ 43.7 µM).

With NC1NC=NC2=C1C(c1ccc(Br)cc1)c1c(c3ccccc3oc1=O)O2 (stereo unspecified) the zone of inhibition at 20000 µg/mL (Bacillus cereus [12]) was 22 mm, the “inhibition zone (IZ)” value (Staphylococcus aureus) was 29 mm and the “inhibition zone (IZ)” value (Pseudomonas aeruginosa) was 18 mm. The “inhibition zone (IZ)” value (Escherichia coli) was 21 mm, the “inhibition zone (IZ)” value (Klebsiella aerogenes) was 20 mm and the “inhibition zone (IZ)” value (Aspergillus niger) was 14 mm. The “inhibition zone (IZ)” value (Penicillium italicum) was 16 mm and the “inhibition zone (IZ)” value (Fusarium oxysporum) was 18 mm.

CC(=O)N1C(c2ccccc2)Cc2c(c(=O)oc3c2ccc2ccccc23)C1c1ccccc1 (stereo unspecified) gave an Activity [8] of 9%, an Activity (Fusarium verticillioides) of 6% and an Activity (Rhizoctonia solani [9]) of 2%. For the same compound, the Activity (Erysiphe necator) was 0%, the Activity (Phytophthora) was 0% and the Activity (Botrytis cinerea [10]) was 21%.

For CCSc1nn2c(=N)c3c(=O)oc4ccccc4c3nc2s1, the “inhibition zone (IZ)” value (Aspergillus niger) was 15 mm.

With CN1C(c2ccccc2)Cc2c(c(=O)oc3c2ccc2ccccc23)C1c1ccccc1 (stereo unspecified) the Activity [8] was 9%, the Activity (Fusarium verticillioides) was 14% and the Activity (Rhizoctonia solani [9]) was 0%. The Activity (Erysiphe necator) was 8%, the Activity (Phytophthora) was 0% and the Activity (Botrytis cinerea [10]) was 0%.

Work on CC[C@]1(O)C[C@@H]2CN(CCc3c([nH]c4ccccc34)[C@@](C(=O)OC)(c3cc4c(cc3OC)N(C)[C@H]3[C@@](O)(C(=O)OC)[C@H](OC(C)=O)[C@]5(CC)C=CCN6CC[C@]43[C@@H]65)C2)C1 [VINBLASTINE] yielded a pIC50 (HCT-116/VM46) of 8.70.

Compound CCOc1ccc2c(c1)oc(=O)c1c(C)c(C)oc12 has an EC50 (Botrytis cinerea [5]) of 1.72 µg/mL (≈ 6.66 µM).

COc1ccc2c3c(c(=O)oc2c1)CN(Cc1ccc(F)cc1)CC3 gave a Ki [13] of 1.35 µM.

Cc1ccc2c3c(c(=O)oc2c1)C(c1ccccc1)NC(c1ccccc1)C3 (stereo unspecified) showed an Activity [8] of 0%, an Activity (Fusarium verticillioides) of 20% and an Activity (Rhizoctonia solani [9]) of 13%. For the same compound, the Activity (Erysiphe necator) was 38%, the Activity (Phytophthora) was 83% and the Activity (Botrytis cinerea [10]) was 0%.

For NYSTATIN, the inhibition zone (IZ) (Penicillium italicum) was 20 mm, the inhibition zone (IZ) (Fusarium oxysporum) was 26 mm and the inhibition zone (IZ) (Aspergillus ochraceus) was 24 mm. It also gave an inhibition zone (IZ) (Penicillium chrysogenum) of 24 mm.

Work on O=C1c2ccccc2-c2nc3c(c(-c4ccccc4)c21)c(=O)oc1ccccc13 yielded a pIC50 (Ehrlich) of 6.89.

In the case of O=c1oc2ccccc2c2c1C(c1ccc(Cl)cc1)c1c(ncn3nc(CCl)nc13)O2 (stereo unspecified), the “inhibition zone (IZ)” value (Staphylococcus aureus) was 23 mm, the “inhibition zone (IZ)” value (Bacillus cereus [2]) was 22 mm and the “inhibition zone (IZ)” value (Serratia marcescens [3]) was 23 mm. For the same compound, the “inhibition zone (IZ)” value (Proteus mirabilis) was 22 mm, the “inhibition zone (IZ)” value (Aspergillus ochraceus) was 19 mm and the “inhibition zone (IZ)” value (Penicillium chrysogenum) was 19 mm.

CCc1cccc(-n2c(N)c(C#N)c3c(c(=O)oc4ccc5ccccc5c43)c2=O)c1 gave a pIC50 (Ehrlich) of 3.61.
